The text below walks through data of patent US20210386709A1, “COMPOSITIONS AND METHODS FOR SUPPRESSING MSUT2” (United States Government As Represented By The Department …, priority 2020, published 2021).

One data set addresses T1, MSUT2 ZF (Homo sapiens, UniProt Q6PJT7).
T1 construct: Targeted construct consisted of the c-terminal end (dark blue and amino acids 601-736) of MSUT2; made in house; host or cells: E. coli BL21 (DE3)
T1 sequence (Q6PJT7 601-736): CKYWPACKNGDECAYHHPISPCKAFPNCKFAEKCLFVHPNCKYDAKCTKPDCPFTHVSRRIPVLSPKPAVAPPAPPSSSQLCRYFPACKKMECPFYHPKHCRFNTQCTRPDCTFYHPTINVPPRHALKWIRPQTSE
Description: Fluorescence polarization assay of FAM-poly(A) RNA:MSUT2 ZF binding. Particulars: for Ki (nm) for MSUT2 / Ki: calculated by Cheng Prusof equation Ki=(IC50)/[(L/Kd)+1], FP dose response; for Ki: read-out: Ki (nm) for MSUT2. The method, then:
Fluorescence Polarization Assay. […] 2 μL of compound was transferred for a final concentration of 10 μM. […] Fluorescence polarization was calculated by first subtracting background from a buffer-only control well and then using the equation
Results and Discussion. A high-throughput fluorescence polarization assay for inhibition of poly(A):MSUT2 RNA interaction. […] In order to screen potential inhibitors of MSUT2 RBP and RNA by FP, fluorescent FAM (fluorescein amidite)-labeled poly(A)15 RNA (FAM-RNA) and recombinant MSUT2 ZF (zinc finger) protein expressing constructs were generated (FIG. 7a). […] Inhibition of the interaction results in unbound FAM-RNA tumbling at a relatively rapid rate and emitting non-polarized light (FIG. 7b).
(§1) To determine the concentrations of both MSUT2 ZF protein and FAM-RNA probe useful in the methods described herein, a two dimensional titration of protein and RNA concentrations in 96-well format was performed. […] Next, the binding constant between MSUT2 ZF and FAM-RNA was determined by holding FAM-RNA constant at 10 nM while increasing MSUT2 ZF concentration.
(§2) Identification and validation of MSUT2 inhibitory compounds from NIHCC library. […] IC50 of each of the previous 8 compounds was determined for PABPN1 using fluorescence polarization (FIG. 11), and a specificity ratio determined (Table 3). An Alpha Screen (AS) assay was developed as an orthogonal screen. Briefly, in this screen, biotinylated RNA binds streptavidin-coated donor beads, while GST-MSUT2 ZF binds glutathione-coated acceptor beads. When donor beads and acceptor beads are brought within close proximity of one another, laser excitation leads to fluorophore emission of the acceptor bead via excited singlet oxygen activating chemiluminescers in the acceptor beads. […] Toxicity of these compounds in a HEK cell model was determined using a standard Promega Cell Titer Glo assay.
(§3) Fluorescence Polarization Assay. […] of stock compound was transferred yielding 10 μM final concentration. […] Fluorescence polarization was calculated by first subtracting background from a buffer-only control well and then using the equation

Another data set deals with HEK-293 cells. Description: Cell viability, Promega Cell Titer Glo. On the technique in general: Cellular ATP, detected with luciferase, serves as a proxy for viable cell number.
The target of data set [1] is T2, PABPN1 (Homo sapiens, UniProt Q86U42).
T2 construct: made in house; host or cells: E. coli BL21 (DE3)
T2 sequence (Q86U42 1-306): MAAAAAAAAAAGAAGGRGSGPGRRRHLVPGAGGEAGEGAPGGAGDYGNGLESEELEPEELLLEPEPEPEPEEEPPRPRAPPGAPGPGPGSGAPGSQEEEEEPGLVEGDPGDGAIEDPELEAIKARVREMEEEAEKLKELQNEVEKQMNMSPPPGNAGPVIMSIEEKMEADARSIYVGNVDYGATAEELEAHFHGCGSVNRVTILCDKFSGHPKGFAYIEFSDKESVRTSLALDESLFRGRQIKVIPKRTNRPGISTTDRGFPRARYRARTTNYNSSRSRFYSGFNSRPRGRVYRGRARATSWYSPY
The data set is described as follows: PABPN1 fluorescence polarization counter screen. The note with it: for IC50PABPN1 / IC50: fluorescence polarization counter screen; for IC50PABPN1: unit not given; for IC50: unit inferred, read-out: IC50PABPN1; for PABPN1/MSUT2 specificity ratio: ratio of FP IC50s. It counts as binding. As to the method: A drug repurposing strategy: screening of the NIH Clinical Collection compound library. […] The plan to find suitable lead compounds for drug repurposing began with a screen of the NIH Clinical Collection (NIHCC) library. The NIHCC consists of a diverse array of 700 compounds with historical pharmacological use and well-studied safety profiles. […] An orthogonal poly(A):MSUT2 binding assay allowed the ruling out of assay interference while selectivity against MSUT2 over PABPN1 was determined by a parallel FP assay with PABPN1 as the RBP. […] Thus, the goal was to eliminate compounds interfering with both PABN1 and MSUT2 and focus on compounds truly specific for poly(A):MSUT2 binding.
as §2, §3
(In general: In fluorescence polarisation assays a small probe gives low polarisation when free and higher when bound to something large.)

In another data set the target is T3, GST-MSUT2 (Homo sapiens, UniProt Q6PJT7).
T3 construct: Targeted construct consisted of the c-terminal end (dark blue and amino acids 601-736) of MSUT2; made in house; host or cells: E. coli BL21 (DE3)
T3 sequence (Q6PJT7 601-736): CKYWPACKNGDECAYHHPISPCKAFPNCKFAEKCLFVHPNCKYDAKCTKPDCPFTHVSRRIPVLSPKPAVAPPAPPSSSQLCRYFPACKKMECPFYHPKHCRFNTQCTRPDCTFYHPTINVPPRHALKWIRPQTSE
Description: Alpha Screen assay of biotinylated poly(A) RNA:GST-MSUT2 binding. The note with it: orthogonal dose-response validation. As to the method:
Alpha Screen Assay. Samples were set up in 384 well Perkin Elmer white opaque-bottom plates (PE06). A total reaction volume of […] was plated in 384 format using a CyBio Well Vario (6 μL of donor beads (10 μg/mL), 3 μL biotinylated RNA (250 nM), 3 μL GST-MSUT2 protein (250 nM) per well). 50 nL of compounds were transferred to wells via CyBio Vario equipped with Pin Tool. This mixture was incubated at room temperature for 30 minutes away from light. Next 3 μL of acceptor beads (1.25 μg/mL) was added. Plates were incubated at room temperature away from light for 60 minutes and subsequently read on a Perkin Elmer EnVision multimode microplate reader equipped with stackers using a standard 384-well Alpha Assay software protocol.
Results. Alpha Screen design and underlying principle. Alpha Screen technology relies on donor beads, coated with a hydrogel excitable by 680 nm, brought within close proximity to an acceptor bead leading to light emission and detection. In this assay, streptavidin coated donor beads tightly bind to biotinylated-poly(A) RNA while the glutathione-coated acceptor bead binds to GST-tagged MSUT2 protein. […] When this interaction is blocked by an inhibitor, the proximity threshold for donor and acceptor beads is not met, singlet oxygen transference cannot occur, and light is not emitted by the acceptor bead (FIG. 1a).
Identification and validation of MSUT2 inhibitory compounds from NIHCC library. The single-point primary screen was conducted in duplicate and utilized the FP assay conditions determined herein (e.g., 125 nM MSUT2 RNABP and 10 nM FAM-RNA probe) with 10 μM library compounds added in a 96-well format. […] Compound specificity was empirically tested by counter screening against PABPN1, a regulator of the length of mRNA poly(A) tails (Apponi, L. H. et al. Hum Mol Genet 19, 1058-1065, (2010); and Benoit, B. et al. Dev Cell 9, 511-522, (2005)). IC50 of each of the previous 8 compounds was determined for PABPN1 using fluorescence polarization (FIG. 11), and a specificity ratio determined (Table 3). An Alpha Screen (AS) assay was developed as an orthogonal screen. Briefly, in this screen, biotinylated RNA binds streptavidin-coated donor beads, while GST-MSUT2 ZF binds glutathione-coated acceptor beads. […] Toxicity of these compounds in a HEK cell model was determined using a standard Promega Cell Titer Glo assay.
Alpha Screen Assay. […] The plate was then incubated again at room temperature away from light for 60 minutes and subsequently read on a Perkin Elmer EnSight multimode microplate reader using a standard 96-well Alpha Assay protocol.

For data set [2], the target named is T4, MSUT2 ZF (ZC3H14 C-terminal CCCH zinc finger domain) (UniProt Q6PJT7 Q6PJT7:601-736).
T4 sequence: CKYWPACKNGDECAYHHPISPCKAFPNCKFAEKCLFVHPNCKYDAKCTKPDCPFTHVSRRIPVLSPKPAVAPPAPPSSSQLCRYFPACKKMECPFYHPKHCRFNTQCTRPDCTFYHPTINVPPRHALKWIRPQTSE
Description: FP; PBS, room temperature, 10 nM FAM-RNA; reported as affinity / binding constant. The note with it: tags: GST (pGEX-6P1); label: 5' FAM. The method, then: as §1, §3

The target of data set [3] is T4, MSUT2 ZF (ZC3H14 C-terminal CCCH zinc …). Description: competition; FP competition, 10 nM FAM-RNA and 125 nM MSUT2 ZF, PBS. The note with it: tags: GST (pGEX-6P1). The method, then: as §1, §3
The target in data set [4] is T5, PABPN1 (UniProt Q86U42 Q86U42:1-306).
T5 sequence: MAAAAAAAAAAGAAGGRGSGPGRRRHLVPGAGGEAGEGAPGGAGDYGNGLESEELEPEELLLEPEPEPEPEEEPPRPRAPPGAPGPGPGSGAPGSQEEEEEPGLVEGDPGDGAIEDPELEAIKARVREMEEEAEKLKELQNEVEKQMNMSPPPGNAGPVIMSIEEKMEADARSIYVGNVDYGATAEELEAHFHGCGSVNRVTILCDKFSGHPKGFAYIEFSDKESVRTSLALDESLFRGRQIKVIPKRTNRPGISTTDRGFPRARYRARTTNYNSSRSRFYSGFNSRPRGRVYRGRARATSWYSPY
The data set is described as follows: Alpha Screen counter-screen. Particulars: tags: GST (pGEX-6P1); label: 5' biotin. (In general: The purpose of a counterscreen is to sort out artefacts and off-target activity.)

Where two headings read alike, the source gives them in different places. {FAM} = fluorescein amidite label

Regarding `O=C(N[C@H](CO)[C@H](O)c1ccc([N+](=O)[O-])cc1)C(Cl)Cl` [Chloramphenicol], the “Ki (nm) for MSUT2” value on MSUT2 ZF was “failed DR”.

As to `O=C(O)C1=CC(=C(c2ccc(O)c(C(=O)O)c2)c2ccc(O)c(C(=O)O)c2)C=CC1=O` [Aurin tricarboxylic acid], the “toxicity (effect on cell viability)” value with HEK-293 cells (HEK-293, 72 hours, indicated concentrations) is recorded as “relatively high toxicity at high concentrations”.

By Ki is commonly meant a measure of affinity in units of concentration, obtained from inhibition or displacement. Turning to `CN1C2CCCC1CC(NC(=O)c1nn(C)c3ccccc13)C2` (centres unmarked) [Granisetron], the Ki on MSUT2 ZF is 534 nM. The IC50 at MSUT2 ZF (read-out: IC50MSUT2) came to 541 nM. For the same molecule, the IC50PABPN1 entry on PABPN1 [1] was “None”.

As for “unlabeled poly(A)15 RNA: unlabeled poly(A) RNA 5′-AAAAAAAAAAAAAAA-3′ (SEQ ID NO: 2), positive control for inhibition (RNA, backbone not given here)”, in the data set with MSUT2 ZF (10 nM FAM-RNA:125 nM MSUT2 ZF, positive control, read-out: IC50 in FP competition assay), the IC50 amounted to 320 nM.

For orientation: cell viability means the share of living cells, or the viability signal relative to a control. Read a high cell viability as less harm to the cells. As for `CC(C)(C)NC(=O)[C@@H]1C[C@@H]2CCCC[C@@H]2CN1C[C@@H](O)[C@H](Cc1ccccc1)NC(=O)[C@H](CC(N)=O)NC(=O)c1ccc2ccccc2n1` [Saquinavir], the cell viability in the data set with HEK-293 cells (HEK, highest tested dose of 4004, normalized to 2% DMSO vehicle) was 65%. In addition, the “inhibition activity by Alpha Screen (AS)” value at GST-MSUT2 was “dose-dependent inhibition activity”. In addition, the Ki on MSUT2 ZF was 188 nM. The IC50PABPN1 entry against PABPN1 [1] is given as “None”.

As to `C[C@H]1CCC[C@H](O)CCCCCc2cc(O)cc(O)c2C(=O)O1` [Zeranol], the “Ki (nm) for MSUT2” value at MSUT2 ZF was “failed DR”.

Regarding `CC(C(=O)O)c1ccc(-c2ccccc2)c(F)c1` (centres unmarked) [Flurbiprofen], the IC50 on PABPN1 [1] was 6570 nM.

Take `CNCC[C@@H](Oc1ccccc1C)c1ccccc1` [Atomoxetine]: the “Ki (nm) for MSUT2” value on MSUT2 ZF was “failed dose”.

As for `CCCCN1CCCC1CNC(=O)c1cc(C#N)c2ccccc2c1OC` (centres unmarked) [Nafadotride], the Ki at MSUT2 ZF was 867 nM. Also, at PABPN1 [1], the IC50 was found to be 67700 nM and the PABPN1/MSUT2 specificity ratio was 77.11.

On to “FAM-RNA: fluorescent FAM (fluorescein amidite)-labeled poly(A)15 RNA probe (SEQ ID NO: 3) (AAAAAAAAAAAAAAA; RNA, 5' {FAM}, backbone not given here)”, for which the Kd with MSUT2 ZF (saturation assay, FAM-RNA constant at 10 nM, read-out: affinity for FAM-RNA:MSUT2 ZF interaction) stood at 810 nM.

In the case of `CC(C)(C)NC(=O)[C@@H]1CN(Cc2cccnc2)CCN1C[C@@H](O)C[C@@H](Cc1ccccc1)C(=O)N[C@H]1c2ccccc2C[C@H]1O` [Indinavir], on MSUT2 ZF, the Ki was 916 nM. Further, the IC50 at MSUT2 ZF (read-out: IC50MSUT2) stood at 927 nM; at PABPN1 [1], 28900 nM.

Turning to `OCCOCCN1CCN(C(c2ccccc2)c2ccc(Cl)cc2)CC1` (centres unmarked) [Hydroxyzine], the Ki at MSUT2 ZF was 573 nM. Besides, on PABPN1 [1], the IC50 is 23700 nM and the PABPN1/MSUT2 specificity ratio was 40.7931.

In data set [2], AAAAAAAAAAAAAAA (ssRNA) [FAM-poly(A)15] registered a Kd of 810 nM.

As to AAAAAAAAAAAAAAA (ssRNA) [poly(A)15 unlabeled], the IC50 in data set [3] amounted to 320 nM.

Take AAAAAAAAAAAAAAA (ssRNA) [biotin-poly(A)15]: the binding result with PABPN1 [4] is “binds”.
